Patent US20070042997A1, “Medicament for treatment of dermal pigmentation” (priority 2003, published 2007)

Tested on: melanocytes
Experiment: Proliferation inhibitory test against melanocyte caused by ultraviolet irradiation
Type: cell-based
Details: cultured melanocytes, compound at 1 μg/ml
Description: Proliferation Inhibitory Test Against Melanocyte Caused by Ultraviolet Irradiation
Melanocytes were cultured according to the authentic method, and the proliferation of melanocytes in the presence or absence of test drugs under the ultraviolet irradiation was measured.

O=C(Nc1cc(C(F)(F)F)cc(C(F)(F)F)c1)c1cc(Cl)ccc1O [Compound 50, N-[3,5-bis(trifluoromethyl)phenyl]-5-chloro-2-hydroxybenzamide]
inhibition of transformation and proliferation of melanocyte under ultraviolet irradiation: almost completely inhibited
